# Measurements from patent publication US10676431B2, “Phenylpyrrolidinone formyl peptide 2 receptor agonists” (BRISTOL-MYERS SQUIBB COMPANY, priority 2018, dated 2020).
# Tests used:
# human FPR2 = human FPR2 (Homo sapiens (Human), UniProt P25090); assay: FPR2 cyclic adenosine monophosphate (cAMP) assay; type: cell-based; conditions: CHO cells overexpressing human FPR2; forskolin 5 μM, IBMX 200 μM; inhibition of cAMP production, HTRF; read-out: hFPR2 cAMP2 EC50
# Experimental: (§1) FPR2 and FPR1 Cyclic Adenosine Monophosphate (cAMP) Assays. A mixture of forskolin (5 μM final for FPR2 or 10 μM final for FPR1) and IBMX (200 μM final) were added to 384-well Proxiplates (Perkin-Elmer) pre-dotted with test compounds in DMSO (1% final) at final concentrations in the range of 0.020 nM to 100 μM. Chinese Hamster Ovary cells (CHO) overexpressing human FPR1 or human FPR2 receptors were cultured in F-12 (Ham's) medium supplemented with 10% qualified FBS, 250 μg/ml zeocin and 300 μg/ml hygromycin (Life Technologies). Reactions were initiated by adding 2,000 human FPR2 cells per well or 4,000 human FPR1 cells per well in Dulbecco's PBS (with calcium and magnesium) (Life Technologies) supplemented with 0.1% BSA (Perkin-Elmer). The reaction mixtures were incubated for 30 min at room temperature. The level of intracellular cAMP was determined using the HTRF HiRange cAMP assay reagent kit (Cisbio) according to manufacturer's instruction. Solutions of cryptate conjugated anti-cAMP and d2 fluorophore-labelled cAMP were made in a supplied lysis buffer separately. Upon completion of the reaction, the cells were lysed with equal volume of the d2-cAMP solution and anti-cAMP solution. After a 1-h room temperature incubation, time-resolved fluorescence intensity was measured using the Envision (Perkin-Elmer) at 400 nm excitation and dual emission at 590 nm and 665 nm. A calibration curve was constructed with an external cAMP standard at concentrations ranging from 1 μM to 0.1 pM by plotting the fluorescent intensity ratio from 665 nm emission to the intensity from the 590 nm emission against cAMP concentrations. The potency and activity of a compound to inhibit cAMP production was then determined by fitting to a 4-parametric logistic equation from a plot of cAMP level versus compound concentrations.
# human FPR1 = human FPR1 (Homo sapiens (Human), UniProt P21462); assay: FPR1 cyclic adenosine monophosphate (cAMP) assay; type: cell-based; conditions: CHO cells overexpressing human FPR1; forskolin 10 μM, IBMX 200 μM; inhibition of cAMP production, HTRF; read-out: hFPR1 cAMP EC50
# Sequence of human FPR1 (P21462 whole entry): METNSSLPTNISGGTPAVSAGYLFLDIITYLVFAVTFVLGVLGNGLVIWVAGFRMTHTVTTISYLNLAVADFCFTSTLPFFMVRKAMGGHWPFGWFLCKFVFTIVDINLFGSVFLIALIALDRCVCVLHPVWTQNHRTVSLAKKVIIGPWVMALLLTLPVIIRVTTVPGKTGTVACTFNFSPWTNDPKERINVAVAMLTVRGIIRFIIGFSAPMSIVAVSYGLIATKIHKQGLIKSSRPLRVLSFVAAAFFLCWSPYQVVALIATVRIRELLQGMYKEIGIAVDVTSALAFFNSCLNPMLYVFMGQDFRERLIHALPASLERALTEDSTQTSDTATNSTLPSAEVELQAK
# Experimental: as §1, with “After a 1-h room temperature incubation, time-resolved fluorescence intensity was measured using the Envision (Perkin-Elmer) at 400 nm excitation and dual emission at 590 nm and 665 nm. A calibration curve was constructed with an external cAMP standard at concentrations ranging from 1 μM to 0.1 pM by plotting the fluorescent intensity ratio from 665 nm emission to the intensity from the 590 nm emission against cAMP concentrations.” left out
# Sequence of human FPR2 (P25090 whole entry): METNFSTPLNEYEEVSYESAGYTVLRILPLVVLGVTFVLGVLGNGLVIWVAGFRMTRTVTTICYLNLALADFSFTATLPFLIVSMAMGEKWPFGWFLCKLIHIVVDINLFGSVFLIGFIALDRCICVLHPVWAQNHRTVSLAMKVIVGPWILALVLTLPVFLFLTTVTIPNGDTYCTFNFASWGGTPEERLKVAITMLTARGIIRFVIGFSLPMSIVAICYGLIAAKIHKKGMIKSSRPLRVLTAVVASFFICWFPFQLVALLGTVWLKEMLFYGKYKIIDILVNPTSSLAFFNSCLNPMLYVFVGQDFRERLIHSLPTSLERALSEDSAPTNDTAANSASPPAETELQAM
Structure (SMILES),EC50 (human FPR2) [nM],EC50 (human FPR1) [nM]
CC1C[C@@H](NC(=O)Nc2ccc(Cl)cc2F)C(=O)N1c1ccc(-c2ccccc2S(C)(=O)=O)c(F)c1F (stereo partly drawn) [Example 129],2.4,19
CS(=O)(=O)Nc1ccccc1-c1ccc(N2CC[C@@H](NC(=O)Nc3ccc(C(F)(F)F)cc3)C2=O)cc1 [Example 14],7.2,600
CC1C[C@@H](NC(=O)Nc2ccc(C(F)(F)F)cc2F)C(=O)N1c1ccc(-c2cccnc2P(C)(C)=O)c(F)c1F (stereo partly drawn) [Example 120],0.78,160
"CP(C)(=O)c1ccccc1-c1ccc(N2CC[C@@H](NC(=O)Nc3ccc(Cl)cc3F)C2=O)c(F)c1F [Example 25, (R)-1-(4-chloro-2-fluorophenyl)-3-(1-(2′-(dimethylphosphoryl)-2,3-difluoro-[1,1′-biphenyl]-4-yl)-2-oxopyrrolidin-3-yl)urea]",0.53,260
CC(C)c1cc(-c2ccccc2P(C)(C)=O)ccc1N1CC[C@@H](NC(=O)Nc2ncc(Cl)cc2F)C1=O [Example 61],23,370
CP(C)(=O)c1ccccc1-c1ccc(N2C(=O)[C@H](NC(=O)Nc3ccc(C(F)(F)F)cc3F)C[C@H]2CO)c(F)c1F [Example 114],0.86,270
CS(=O)(=O)Nc1ccccc1-c1ccc(N2CC[C@@H](NC(=O)Nc3ccc(C(F)(F)F)cc3F)C2=O)c(F)c1F [Example 33],1.1,470
CC(N)c1cccc(-c2ccc(N3CC[C@@H](NC(=O)Nc4ccc(Cl)cc4)C3=O)c(F)c2F)c1 (stereo partly drawn) [Example 12],2.5,450
COC[C@@H]1C[C@@H](NC(=O)Nc2ccc(Cl)cc2F)C(=O)N1c1ccc(-c2ccccc2P(C)(C)=O)c(F)c1F [Example 30],0.22,83
CP(C)(=O)c1ccccc1-c1cc(F)c(N2CC[C@@H](NC(=O)Nc3ccc(C(F)(F)F)cc3F)C2=O)c(F)c1 [Example 76],4.1,2100
CCP(=O)(CC)c1ccccc1-c1ccc(N2CC[C@@H](NC(=O)Nc3ccc(Cl)cc3F)C2=O)c(F)c1F [Example 75],3.4,1180
CC(C)c1cc(-c2ccccc2NS(C)(=O)=O)ccc1N1CC[C@@H](NC(=O)Nc2ccc(Cl)cc2F)C1=O [Example 27],0.5,110
COP(=O)(OC)c1ccccc1-c1ccc(N2CC[C@@H](NC(=O)Nc3ccc(C(F)(F)F)cc3F)C2=O)c(F)c1F [Example 108],1.4,
CP(C)(=O)c1ccccc1-c1ccc(N2CC[C@@H](NC(=O)Nc3ccc(Cl)cc3F)C2=O)c(C(F)F)c1F [Example 107],11,5.8
COc1ccc(NC(=O)N[C@@H]2CCN(c3ccc(-c4ccccc4P(C)(C)=O)c(F)c3F)C2=O)c(F)c1 [Example 71],2.1,1280
CS(=O)(=O)Nc1ncccc1-c1ccc(N2CC[C@@H](NC(=O)Nc3ccc(Cl)cc3F)C2=O)c(F)c1F [Example 23],8.2,700
CCOP(C)(=O)c1ccccc1-c1ccc(N2CC[C@@H](NC(=O)Nc3ccc(C(F)(F)F)cc3F)C2=O)c(F)c1F (stereo partly drawn) [Example 104],5.2,
CP(C)(=O)c1c(F)cccc1-c1ccc(N2CC[C@@H](NC(=O)Nc3ccc(Cl)cc3F)C2=O)c(F)c1Cl [Example 85],0.62,5.1
CS(=N)(=O)c1ccccc1-c1ccc(N2CC[C@@H](NC(=O)Nc3ccc(C(F)(F)F)cc3F)C2=O)c(F)c1F (stereo partly drawn) [Example 66],4.9,580
CP(C)(=O)c1ccccc1-c1ccc(N2CC[C@@H](NC(=O)Nc3ccc(C(F)(F)F)cn3)C2=O)c(F)c1F [Example 64],8.8,2900
CP(C)(=O)c1ccccc1-c1cc(F)c(N2CC[C@@H](NC(=O)Nc3ccc(Cl)cc3F)C2=O)c(F)c1 [Example 53],7.8,2700
Cn1ccc(-c2ccc(N3CC[C@@H](NC(=O)Nc4ccc(Cl)cc4F)C3=O)c(F)c2F)n1 [Example 28],9.8,550
CP(C)(=O)c1ccccc1-c1ccc(N2C(=O)[C@H](NC(=O)Nc3ccc(C(F)(F)F)cc3F)C[C@H]2CN2CCOCC2)c(F)c1F [Example 131],1.2,61
CS(=O)(=O)Nc1ccccc1-c1ccc(N2CC[C@@H](NC(=O)Nc3cnc(C(F)(F)F)cn3)C2=O)c(F)c1F [Example 18],20,2100
COc1ccc(NC(=O)N[C@@H]2CCN(c3ccc(-c4ccccc4P(C)(C)=O)c(F)c3F)C2=O)cc1 [Example 65],1.2,2600
CCP(=O)(CC)c1ccccc1-c1ccc(N2CC[C@@H](NC(=O)Nc3ncc(Cl)cc3F)C2=O)c(F)c1F [Example 67],2.48,1300
CCOP(C)(=O)c1ccccc1-c1ccc(N2CC[C@@H](NC(=O)Nc3ccc(C(F)(F)F)cc3F)C2=O)c(F)c1F (stereo partly drawn) [Example 105],6.9,
CCOP(C)(=O)c1ccccc1-c1ccc(N2CC[C@@H](NC(=O)Nc3ccc(Cl)cc3F)C2=O)c(F)c1F (stereo partly drawn) [Example 101],0.66,

# The remaining molecules from weak to strong by EC50 (human FPR2), led by results:
EC50 (human FPR2) [nM],EC50 (human FPR1) [nM],Structure (SMILES)
33,1500,CC(N)c1cccc(-c2ccc(N3CC[C@@H](NC(=O)Nc4ccc(Cl)cc4)C3=O)c(F)c2F)c1 (stereo partly drawn) [Example 22]
30,540,CP(C)(=O)c1ccccc1-c1ccc(N2C(=O)[C@@H](NC(=O)Nc3ccc(Cl)cc3F)C[C@H]2CO)c(F)c1F [Example 111]
22,78,O=C(Nc1ccc(Cl)cc1)N[C@@H]1CCN(c2ccc(-c3cccnc3F)c(F)c2F)C1=O [Example 19]
22,> 10000,CP(C)(=O)c1ccccc1-c1ccc(N2CC[C@@H](NC(=O)Nc3ncc(C(F)(F)F)cc3F)C2=O)c(F)c1F [Example 55]
22,5000,CP(C)(=O)c1ccccc1-c1ccc(N2CC[C@@H](NC(=O)Nc3ccc(OC(F)(F)F)cc3F)C2=O)c(F)c1F [Example 69]
16,4100,CS(=O)(=O)Nc1ccccc1-c1ccc(N2CC[C@@H](NC(=O)Nc3ccc(Cl)cn3)C2=O)c(F)c1F [Example 17]
14,640,CC(N)c1cccc(-c2ccc(N3CC[C@@H](NC(=O)Nc4ccc(Cl)cc4F)C3=O)c(F)c2F)c1 (stereo partly drawn) [Example 50]
13,84,CP(C)(=O)c1ccccc1-c1ccc(N2CC[C@@H](NC(=O)Nc3ccc(Cl)cc3F)C2=O)c(C2CC2)c1F [Example 117]
12,780,CP(C)(=O)c1ncncc1-c1ccc(N2CC[C@@H](NC(=O)Nc3ccc(C(F)(F)F)cc3F)C2=O)c(F)c1F [Example 93]
5.67,4400,CP(C)(=O)c1ccccc1-c1ccc(N2CC[C@@H](NC(=O)Nc3cnc(Cl)cn3)C2=O)c(F)c1F [Example 63]
5.1,1400,COC[C@@H]1C[C@@H](NC(=O)Nc2ccc(C(F)(F)F)cc2F)C(=O)N1c1ccc(-c2ccccc2P(C)(C)=O)c(F)c1F [Example 90]
1.2,55,CC1C[C@@H](NC(=O)Nc2ccc(C(F)(F)F)cc2F)C(=O)N1c1ccc(-c2ccccc2P(C)(C)=O)c(F)c1F (stereo partly drawn) [Example 115]
0.3,5,CC1C[C@@H](NC(=O)Nc2ccc(Cl)cc2F)C(=O)N1c1ccc(-c2cccnc2P(C)(C)=O)c(F)c1F (stereo partly drawn) [Example 121]
